Entries after “also recorded” stand apart in the source; their conditions may differ.
Key:
human SIN3B PAH2 domain = biological target: T1, human SIN3B PAH2 domain (Homo sapiens, UniProt O75182); assay: Ligand-detected NMR, human SIN3B PAH2; format: binding, H. sapiens; details: 300 μM compound, 10 μM protein
T1 construct: Residues 155-241 of human SIN3B (PAH2 domain) were inserted into the pMALC2XE vector for NMR experiments; made in house; host or cells: E. coli BL21 (DE3)
Method: (§1) Ligand-detected NMR experiments: all results were acquired using a 3 mm tube at 25° C. on a Bruker 600 MHz Avance II system equipped with a CPPTCI cryoprobe (Bruker BioSpin Corp.). In all experiments, the concentration of E6R was fixed at 300 μM (from a stock of 25 mM in deuterated DMSO) and the concentration of the protein at 10 μM. The volume of deuterated DMSO was kept constant (1.5%) in all tested samples. Right before the experiments, the compound and protein were diluted in 1×PBS containing 0.1% deuterated dithiothreitol (DTT) to a total volume of 200 μL. Samples were diluted by 5% with D2O for magnetic field lock. Spectra were acquired for ligand only, protein only, and ligand+protein. […] STD experiments [Mayer et al 2001] were acquired with 160 scans, with protein irradiation applied for 3 s at 0 ppm and −20 ppm for the on and off resonance experiments, respectively. On and off resonance spectra were collected and stored separately. One-dimensional CPMG-R2 edited experiments [Hajduk et al 1997] were collected for samples with and without proteins using seven CPMG delays (0, 25, 50, 100, 300, 500, and 800 ms) with four scans per delay. Proton spectra used to measure DLB and chemical shift perturbations in the absence and presence of the proteins were recorded with 16 scans using a recycle delay of 3 s. […]

[1] = biological target: Sc Sin3 PAH2-Ume6 SID (TAMRA-labeled) interaction (Saccharomyces cerevisiae, UniProt P22579); assay: biochemical
Sequence of Sc Sin3 PAH2-Ume6 SID (TAMRA-labeled) interaction (P22579 402-473): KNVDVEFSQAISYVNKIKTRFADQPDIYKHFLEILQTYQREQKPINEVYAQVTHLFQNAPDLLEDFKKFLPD
Method: Symbols represent individual data points (A) or means with SEM, and lines fitted curves.
IC50 determination for unlabeled Ume6 SID, E6, E6R and E6S: the concentrations of FITC-Ume6 SID (30 nM), and GST-Sin3 PAH2 (3 μM) were fixed and the compounds were titrated with an HP D300 (Hewlett-Packard, CA) to the assay plate.

[2] = tested on: yeast S. cerevisiae Sin3 PAH1 and PAH3 domains; assay: Ligand-detected NMR, yeast Sin3 PAH1 and PAH3; format: binding; details: FIG. 27
Method: as §1

[3] = tested on: SK-N-BE(2)-C neuroblastoma cells; assay: Matrigel cell invasion assay; format: cell-based, human; details: FIG. 39A
Method: SK-N-BE(2)C neuroblastoma cells were seeded at 5×10^4 cells per well density in a 24-well plate. Cells were treated for five days with compounds or with DMSO control in Dulbecco's Modified Eagle Medium containing 10% fetal bovine serum, penicillin and streptomycin, in quadruplicate. On Day five, cells were changed to serum-free medium with the same compound concentrations as during the 5-day treatment, and 50,000 cells were seeded on top of a Corning BioCoat Matrigel Invasion Chamber (cat #354480). Medium with 20% FBS was added as chemoattractant to the bottom of the well. Invasion assay was performed per manufacturer instructions. After 48 h, non-invading cells were removed by scrubbing with a cotton tip swab. Cells that remained inside the matrix were stained with 1% crystal violet dye and counted by eye. Percentage of invasive cells was calculated relative to DMSO control.

[4] = tested on: DOI-induced head-twitch response (HTR); assay: DOI-induced head-twitch response assay; format: in vivo, mouse
From the text: Adult male C57BL/6N mice (10-12 weeks old) purchased from Taconic laboratories (Bar Arbor, ME), and C57BL/6N Hdac2 cKO inhouse bred male mice (described previously in Ibi et al 2017) were used for the experimental groups (vehicle and E6R). For assays including Hdac2 cKO mice, we bred homozygous Hdac2loxPAoxP mice to the CaMKIIα-Cre transgenic line and used the Hdac2loxP/loxP:CaMKIIα-Cre (Hdac2 cKO) mice and control littermates. All animals were housed in groups of 5-6 in 500 cm^2 Plexiglas cages (Allentown, NJ) in the animal care facilities at 12 h light/dark cycle (lights on, 8:00 to 20:00) at 23° C. with food and water ad libitum. Cages contained bedding (Teklad ¼″ Corncob bedding, Envigo) and one Nestlests™ (Ancare, Bellmore, NY, USA). […] For the Hdac2 cKO group (n=5), an intraperitoneal injection (2 mg/kg; 10 μL/g) of the psychedelic drug (±)-2,5-dimethoxy-4-iodoamphetamine (DOI) (Sigma Aldrich) was delivered and HTR recorded and quantified. […] 24 h after the last injection, DOI (2 mg/kg; 10 μL/g) was injected and HTR subsequently recorded and quantified. […] HTR were recorded during both habituation and post-DOI administration for 30 min and quantified in 15 min bins. […] 24 h after the last injection, both groups received 2 mg/kg DOI, and HTR was recorded for each group as described above. […]

T1 sequence (O75182 155-241): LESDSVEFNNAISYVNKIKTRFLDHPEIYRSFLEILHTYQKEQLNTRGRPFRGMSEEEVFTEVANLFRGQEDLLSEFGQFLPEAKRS

Structure (SMILES) | binding to human SIN3B PAH2 by NMR (human SIN3B PAH2 domain) | IC50 [1] [µM] | binding to other PAH domains of yeast Sin3 by NMR [2] | migration of neuroblastoma cells in the invasion assay [3] | DOI-induced HTR ([4]; HDAC2 cKO mice, 50 mg/kg chronic, vs untreated HDAC2 cKO) | DOI-induced HTR ([4]; WT mice, 50 mg/kg chronic 10 days, DOI 2 mg/kg)
C[C@@H](NC(=O)c1c(O)n2ccccc2nc1=O)c1ccccc1 [E6R, 4-hydroxy-2-oxo-N—((R)-1-phenylethyl)-3,4-dihydro-2H-pyrido[, 2-a]pyrimidine-3-carboxamide] | could bind; also recorded: virtually identical to those of yeast Sin3 PAH2 | 63.7 | can bind | significantly reduce | no additive effect | significantly reduced
CC(/C=C/C(=O)NO)=C\[C@@H](C)C(=O)c1ccc(N(C)C)cc1 [TSA, trichostatin A] |  |  |  | significantly reduce |  | 
